Results on 6 molecules are retold here after patent US20220323406A1, “METHODS AND COMPOSITIONS FOR DIFFERENTIATING STEM CELLS” (Massachusetts Institute of Technology, priority 2019, published 2022).

SMILES strings stand for the structures. Structures can show the parent of a compound that is named as a salt.

Test [1] relates to ENR+CD organoids (ISC to Paneth cell differentiation). Nature of the test: Primary screen: basal (non-stimulated) lysozyme secretion LYZ.NS, 2.5-D 384-well ENR+CD organoid differentiation. It is filed as cell-based, mouse. The text has this: (§1) High-throughput screening.
For test [2] the test system is unchanged. Nature of the test: Primary screen: CCh-stimulated lysozyme secretion LYZ.S, 2.5-D 384-well ENR+CD organoid differentiation. In kind it is cell-based, mouse. Conditions: primary screen.
From the text: as §1

For test [3], the system named is ENR+CD organoids. Nature of the test: Primary screen: ATP (CellTiter-Glo 3D, CTG) cell number/viability, 2.5-D 384-well ENR+CD organoids.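 Also: compounds given at plating and again on day 3 over a 6-day differentiation from ENR+CV stem-cell-enriched precursors, ATP measured on day 6, plate median as control.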
[4] abbreviates: primary screen, standard z score, dose 0.08 uM.
[5] abbreviates: primary screen, standard z score, dose 0.40 uM.
Where [6] appears, read: primary screen, standard z score, dose 2.00 uM.
Where [7] appears, read: primary screen, standard z score, dose 10.00 uM.
[8] abbreviates: primary screen, dose 0.08 uM, standard z score.
The mark [9] stands for this setting: primary screen, dose 0.40 uM, standard z score.
The mark [10] stands for this setting: primary screen, dose 2.00 uM, standard z score.
Where [11] appears, read: primary screen, dose 10.00 uM, standard z score.
Where [12] appears, read: primary screen; dose 0.08 uM; FC vs plate median.
[13] abbreviates: primary screen; dose 0.40 uM; FC vs plate median.
Where [14] appears, read: primary screen; dose 2.00 uM; FC vs plate median.
Where [15] appears, read: primary screen; dose 10.00 uM; FC vs plate median.

`NC(=O)C1CCCc2c1[nH]c1ccc(Cl)cc21` (stereo not drawn) [EX 527 (Selisistat)]: the Dose.FC.LYZ.NS turned out to be 0.100 log2 fold change in test [1] (primary screen, dose 0.08 uM); 0.059 log2 fold change in test [1] (primary screen, dose 0.40 uM); 0.030 log2 fold change in test [1] (primary screen, dose 2.00 uM); 0.057 log2 fold change in test [1] (primary screen, dose 10.00 uM). Besides, the Z.LYZ.NS in test [1] (setting [4]) came out at 0.871; in test [1] (setting [5]) it was 0.512; in test [1] (setting [6]), 0.261; in test [1] (setting [7]) it was 0.494. Also, the Dose.FC.LYZ.S in test [2] (dose 0.08 uM) is recorded as 0.062 log2 fold change; in test [2] (dose 0.40 uM) it was 0.047 log2 fold change; in test [2] (dose 2.00 uM) it was −0.051 log2 fold change; in test [2] (dose 10.00 uM) it was −0.011 log2 fold change. The Dose.FC.CTG in test [3] (primary screen, dose 0.08 uM) is recorded as 0.240 log2 fold change; in test [3] (primary screen, dose 0.40 uM), 0.174 log2 fold change; in test [3] (primary screen, dose 2.00 uM), 0.341 log2 fold change; in test [3] (primary screen, dose 10.00 uM) it was 0.320 log2 fold change. Further, the Z.CTG in test [3] (setting [4]) was found to be 0.574; in test [3] (setting [5]) it was 0.415; in test [3] (setting [6]), 0.814; in test [3] (setting [7]), 0.766.
As to `Cc1cnc(-c2cc(N3CCN(C(=O)CCS(C)(=O)=O)CC3)ncc2Cl)c(C)c1` [PF-5274857], the Z.LYZ.NS is 0.683 in test [1] (setting [8]), −0.256 in test [1] (setting [9]), 0.094 in test [1] (setting [10]) and 0.642 in test [1] (setting [11]). Besides, the Dose.FC.LYZ.NS was 0.078 log2 fold change in test [1] (setting [12]), −0.029 log2 fold change in test [1] (setting [13]), 0.011 log2 fold change in test [1] (setting [14]) and 0.074 log2 fold change in test [1] (setting [15]). In addition, the Dose.FC.LYZ.S is reported as 0.187 log2 fold change in test [2] (dose 0.08 uM, FC vs plate median); −0.034 log2 fold change in test [2] (dose 0.40 uM, FC vs plate median); 0.042 log2 fold change in test [2] (dose 2.00 uM, FC vs plate median); 0.076 log2 fold change in test [2] (dose 10.00 uM, FC vs plate median). In addition, the Z.CTG in test [3] (setting [8]) was −0.242; in test [3] (setting [9]), −0.096; in test [3] (setting [10]), 0.131; in test [3] (setting [11]), −0.183. The Dose.FC.CTG is given as −0.101 log2 fold change in test [3] (setting [12]), −0.040 log2 fold change in test [3] (setting [13]), 0.055 log2 fold change in test [3] (setting [14]) and −0.076 log2 fold change in test [3] (setting [15]).
Take `Clc1ccccc1CN1CCc2sccc2C1` [Ticlopidine HCl]: the Dose.FC.LYZ.NS in test [1] (primary screen, dose 0.08 uM) is 0.043 log2 fold change; in test [1] (primary screen, dose 0.40 uM) it was 0.010 log2 fold change; in test [1] (primary screen, dose 2.00 uM), −0.002 log2 fold change; in test [1] (primary screen, dose 10.00 uM), −0.035 log2 fold change. Also, the “Z.LYZ.NS (standard z score)” value in test [1] (primary screen, dose 0.08 uM) is on record as 0.373; in test [1] (primary screen, dose 0.40 uM), 0.084; in test [1] (primary screen, dose 2.00 uM), −0.018; in test [1] (primary screen, dose 10.00 uM), −0.308. Moreover, the Dose.FC.LYZ.S in test [2] (dose 0.08 uM) is listed as 0.052 log2 fold change; in test [2] (dose 0.40 uM) it was 0.072 log2 fold change; in test [2] (dose 2.00 uM), −0.022 log2 fold change; in test [2] (dose 10.00 uM) it was 0.076 log2 fold change. The Dose.FC.CTG in test [3] (primary screen, dose 0.08 uM) is recorded as −0.118 log2 fold change; in test [3] (primary screen, dose 0.40 uM), −0.041 log2 fold change; in test [3] (primary screen, dose 2.00 uM) it was −0.234 log2 fold change; in test [3] (primary screen, dose 10.00 uM), −0.005 log2 fold change.
With `CC(=O)O[C@]1(C(C)=O)CC[C@H]2[C@@H]3C=C(Cl)C4=CC(=O)[C@@H]5C[C@@H]5[C@]4(C)[C@H]3CC[C@@]21C` [Cyproterone Acetate], the Dose.FC.LYZ.NS is recorded as −0.026 log2 fold change in test [1] (primary screen, dose 0.08 uM); −0.074 log2 fold change in test [1] (primary screen, dose 0.40 uM); −0.055 log2 fold change in test [1] (primary screen, dose 2.00 uM); −0.081 log2 fold change in test [1] (primary screen, dose 10.00 uM). In addition, the Z.LYZ.NS in test [1] (setting [4]) is −0.225; in test [1] (setting [5]), −0.642; in test [1] (setting [6]) it was −0.479; in test [1] (setting [7]), −0.702. Also, the Dose.FC.LYZ.S is listed as 0.040 log2 fold change in test [2] (dose 0.08 uM), −0.019 log2 fold change in test [2] (dose 0.40 uM), −0.093 log2 fold change in test [2] (dose 2.00 uM) and −0.134 log2 fold change in test [2] (dose 10.00 uM). In addition, the Dose.FC.CTG is listed as −0.110 log2 fold change in test [3] (primary screen, dose 0.08 uM); 0.051 log2 fold change in test [3] (primary screen, dose 0.40 uM); −0.143 log2 fold change in test [3] (primary screen, dose 2.00 uM); −0.173 log2 fold change in test [3] (primary screen, dose 10.00 uM).
For the molecule `C=C[C@@]1(C)CC(=O)[C@]2(O)[C@@]3(C)[C@@H](O)CCC(C)(C)[C@@H]3[C@H](O)[C@H](OC(C)=O)[C@@]2(C)O1` [Forskolin], the Dose.FC.LYZ.NS is listed as −0.007 log2 fold change in test [1] (primary screen, dose 0.08 uM); 0.159 log2 fold change in test [1] (primary screen, dose 0.40 uM); 0.191 log2 fold change in test [1] (primary screen, dose 2.00 uM); 0.219 log2 fold change in test [1] (primary screen, dose 10.00 uM). The Z.LYZ.NS in test [1] (setting [4]) is −0.058; in test [1] (setting [5]) it was 1.381; in test [1] (setting [6]) it was 1.661; in test [1] (setting [7]) it was 1.905. Further, the Dose.FC.LYZ.S in test [2] (dose 0.08 uM) was −0.004 log2 fold change; in test [2] (dose 0.40 uM), 0.237 log2 fold change; in test [2] (dose 2.00 uM) it was 0.102 log2 fold change; in test [2] (dose 10.00 uM), 0.128 log2 fold change. Further, the Dose.FC.CTG was −0.213 log2 fold change in test [3] (primary screen, dose 0.08 uM); −0.175 log2 fold change in test [3] (primary screen, dose 0.40 uM); −0.330 log2 fold change in test [3] (primary screen, dose 2.00 uM); −0.119 log2 fold change in test [3] (primary screen, dose 10.00 uM).
Regarding `Cc1cccc(-c2nn3c(c2-c2ccnc4ccc(C(N)=O)cc24)CCC3)n1` [LY2157299], the “Dose.FC.LYZ.NS (log2 fold change)” value is 0.227 in test [1] (primary screen, dose 0.08 uM); 0.140 in test [1] (primary screen, dose 0.40 uM); 0.092 in test [1] (primary screen, dose 2.00 uM); 0.162 in test [1] (primary screen, dose 10.00 uM). Also, the “Z.LYZ.NS (standard z score)” value turned out to be 1.973 in test [1] (primary screen, dose 0.08 uM); 1.221 in test [1] (primary screen, dose 0.40 uM); 0.799 in test [1] (primary screen, dose 2.00 uM); 1.408 in test [1] (primary screen, dose 10.00 uM). The “Dose.FC.LYZ.S (log2 fold change)” value amounted to 0.187 in test [2] (dose 0.08 uM), 0.199 in test [2] (dose 0.40 uM), 0.113 in test [2] (dose 2.00 uM) and 0.223 in test [2] (dose 10.00 uM). The “Dose.FC.CTG (log2 fold change)” value in test [3] (primary screen, dose 0.08 uM) amounted to 0.091; in test [3] (primary screen, dose 0.40 uM) it was 0.137; in test [3] (primary screen, dose 2.00 uM) it was 0.017; in test [3] (primary screen, dose 10.00 uM), 0.095. In addition, the “Z.CTG (standard z score)” value in test [3] (primary screen, dose 0.08 uM) amounted to 0.218; in test [3] (primary screen, dose 0.40 uM), 0.328; in test [3] (primary screen, dose 2.00 uM), 0.041; in test [3] (primary screen, dose 10.00 uM), 0.226.
